# Reference: US8192962B2, “Processes for detecting toxic substances” (Daikin Industries, Ltd., priority 2001, dated 2012)
# System: Energy system protein genes
# Experiment: DNA chip mRNA expression in yeast, energy system protein genes (Table 4)
# Type: cell-based, Saccharomyces cerevisiae S288C
# Summary of the method: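 Chemical exposure: 2 h, log-phase S. cerevisiae S288C, YPD, 25° C., dose set to inhibit growth without death. Profiling: mRNA labeled by reverse transcription with Cy3- or Cy5-dUTP, hybridized to whole-genome array. Output: fluorescence ratio against untreated culture.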
substance,measurement,setting,value
Na2As [(1)],The level of expressed mRNA in the presence of chemical substance/The level of expressed mRNA in the absence of chemical substance,yeast gene YAL060W,1.1
same,The level of expressed mRNA in the presence of chemical substance/The level of expressed mRNA in the absence of chemical substance,"yeast gene YBL058W, cells incubated two hours with the chemical substance",0.9
same,The level of expressed mRNA in the presence of chemical substance/The level of expressed mRNA in the absence of chemical substance,"yeast gene YBL099W, cells incubated two hours with the chemical substance",0.8
same,The level of expressed mRNA in the presence of chemical substance/The level of expressed mRNA in the absence of chemical substance,"yeast gene YBR001C, cells incubated two hours with the chemical substance",0.9
same,The level of expressed mRNA in the presence of chemical substance/The level of expressed mRNA in the absence of chemical substance,"yeast gene YBR185C, cells incubated two hours with the chemical substance",1.5
same,The level of expressed mRNA in the presence of chemical substance/The level of expressed mRNA in the absence of chemical substance,"yeast gene YBR221C, cells incubated two hours with the chemical substance",0.8
same,The level of expressed mRNA in the presence of chemical substance/The level of expressed mRNA in the absence of chemical substance,yeast gene YCL040W,0.9
same,The level of expressed mRNA in the presence of chemical substance/The level of expressed mRNA in the absence of chemical substance,yeast gene YCR012W,1.2
same,The level of expressed mRNA in the presence of chemical substance/The level of expressed mRNA in the absence of chemical substance,"yeast gene YCR046C, cells incubated two hours with the chemical substance",1.0
same,The level of expressed mRNA in the presence of chemical substance/The level of expressed mRNA in the absence of chemical substance,"yeast gene YCR105W, cells incubated two hours with the chemical substance",2.2
same,The level of expressed mRNA in the presence of chemical substance/The level of expressed mRNA in the absence of chemical substance,yeast gene YDL021W,5.1
same,The level of expressed mRNA in the presence of chemical substance/The level of expressed mRNA in the absence of chemical substance,"yeast gene YDL067C, cells incubated two hours with the chemical substance",1.8
same,The level of expressed mRNA in the presence of chemical substance/The level of expressed mRNA in the absence of chemical substance,"yeast gene YDL078C, cells incubated two hours with the chemical substance",0.7
same,The level of expressed mRNA in the presence of chemical substance/The level of expressed mRNA in the absence of chemical substance,"yeast gene YDL107W, cells incubated two hours with the chemical substance",1.3
same,The level of expressed mRNA in the presence of chemical substance/The level of expressed mRNA in the absence of chemical substance,yeast gene YDL174C,0.9
same,The level of expressed mRNA in the presence of chemical substance/The level of expressed mRNA in the absence of chemical substance,"yeast gene YDL181W, cells incubated two hours with the chemical substance",1.4
same,The level of expressed mRNA in the presence of chemical substance/The level of expressed mRNA in the absence of chemical substance,yeast gene YDR001C,1.0
same,The level of expressed mRNA in the presence of chemical substance/The level of expressed mRNA in the absence of chemical substance,"yeast gene YDR050C, cells incubated two hours with the chemical substance",1.9
same,The level of expressed mRNA in the presence of chemical substance/The level of expressed mRNA in the absence of chemical substance,"yeast gene YDR079W, cells incubated two hours with the chemical substance",1.3
same,The level of expressed mRNA in the presence of chemical substance/The level of expressed mRNA in the absence of chemical substance,"yeast gene YDR178W, cells incubated two hours with the chemical substance",2.0
same,The level of expressed mRNA in the presence of chemical substance/The level of expressed mRNA in the absence of chemical substance,yeast gene YDR231C,1.1
same,The level of expressed mRNA in the presence of chemical substance/The level of expressed mRNA in the absence of chemical substance,"yeast gene YDR298C, cells incubated two hours with the chemical substance",1.3
same,The level of expressed mRNA in the presence of chemical substance/The level of expressed mRNA in the absence of chemical substance,"yeast gene YDR377W, cells incubated two hours with the chemical substance",1.3
same,The level of expressed mRNA in the presence of chemical substance/The level of expressed mRNA in the absence of chemical substance,"yeast gene YDR529C, cells incubated two hours with the chemical substance",1.8
same,The level of expressed mRNA in the presence of chemical substance/The level of expressed mRNA in the absence of chemical substance,"yeast gene YEL024W, cells incubated two hours with the chemical substance",1.5
same,The level of expressed mRNA in the presence of chemical substance/The level of expressed mRNA in the absence of chemical substance,"yeast gene YEL039C, cells incubated two hours with the chemical substance",1.1
same,The level of expressed mRNA in the presence of chemical substance/The level of expressed mRNA in the absence of chemical substance,yeast gene YER178W,0.8
same,The level of expressed mRNA in the presence of chemical substance/The level of expressed mRNA in the absence of chemical substance,yeast gene YFL057C,20.9
same,The level of expressed mRNA in the presence of chemical substance/The level of expressed mRNA in the absence of chemical substance,yeast gene YFR053C,1.8
same,The level of expressed mRNA in the presence of chemical substance/The level of expressed mRNA in the absence of chemical substance,"yeast gene YGL018C, cells incubated two hours with the chemical substance",1.5
same,The level of expressed mRNA in the presence of chemical substance/The level of expressed mRNA in the absence of chemical substance,yeast gene YGL062W,0.6
same,The level of expressed mRNA in the presence of chemical substance/The level of expressed mRNA in the absence of chemical substance,"yeast gene YGL187C, cells incubated two hours with the chemical substance",1.5
same,The level of expressed mRNA in the presence of chemical substance/The level of expressed mRNA in the absence of chemical substance,"yeast gene YGL191W, cells incubated two hours with the chemical substance",2.3
same,The level of expressed mRNA in the presence of chemical substance/The level of expressed mRNA in the absence of chemical substance,"yeast gene YGL205W, cells incubated two hours with the chemical substance",1.0
same,The level of expressed mRNA in the presence of chemical substance/The level of expressed mRNA in the absence of chemical substance,"yeast gene YGL256W, cells incubated two hours with the chemical substance",0.9
same,The level of expressed mRNA in the presence of chemical substance/The level of expressed mRNA in the absence of chemical substance,yeast gene YGR043C,2.6
same,The level of expressed mRNA in the presence of chemical substance/The level of expressed mRNA in the absence of chemical substance,"yeast gene YGR062C, cells incubated two hours with the chemical substance, 25° C., YPD medium",0.9
same,The level of expressed mRNA in the presence of chemical substance/The level of expressed mRNA in the absence of chemical substance,"yeast gene YGR087C, cells incubated two hours with the chemical substance",1.0
same,The level of expressed mRNA in the presence of chemical substance/The level of expressed mRNA in the absence of chemical substance,"yeast gene YGR174C, cells incubated two hours with the chemical substance",1.1
same,The level of expressed mRNA in the presence of chemical substance/The level of expressed mRNA in the absence of chemical substance,yeast gene YGR192C,1.4
same,The level of expressed mRNA in the presence of chemical substance/The level of expressed mRNA in the absence of chemical substance,yeast gene YGR244C,1.0
same,The level of expressed mRNA in the presence of chemical substance/The level of expressed mRNA in the absence of chemical substance,yeast gene YGR254W,1.2
same,The level of expressed mRNA in the presence of chemical substance/The level of expressed mRNA in the absence of chemical substance,yeast gene YHR179W,3.3
same,The level of expressed mRNA in the presence of chemical substance/The level of expressed mRNA in the absence of chemical substance,yeast gene YIL160C,0.8
same,The level of expressed mRNA in the presence of chemical substance/The level of expressed mRNA in the absence of chemical substance,"yeast gene YIR031C, cells incubated two hours with the chemical substance",0.9
same,The level of expressed mRNA in the presence of chemical substance/The level of expressed mRNA in the absence of chemical substance,yeast gene YJL052W,1.6
same,The level of expressed mRNA in the presence of chemical substance/The level of expressed mRNA in the absence of chemical substance,"yeast gene YJL121C, cells incubated two hours with the chemical substance",1.0
same,The level of expressed mRNA in the presence of chemical substance/The level of expressed mRNA in the absence of chemical substance,"yeast gene YJL166W, cells incubated two hours with the chemical substance",2.1
same,The level of expressed mRNA in the presence of chemical substance/The level of expressed mRNA in the absence of chemical substance,"yeast gene YJL216C, cells incubated two hours with the chemical substance",1.1
same,The level of expressed mRNA in the presence of chemical substance/The level of expressed mRNA in the absence of chemical substance,yeast gene YJR009C,1.1
